Measured values published in ChEMBL document CHEMBL5634152, “The discovery of water-soluble indazole derivatives as potent microtubule polymerization inhibitors” (Eur J Med Chem, 2023).
≈ marks a conversion by molar mass, not a printed value. Calls of active or inactive are those of the source. The calls are words filed in the database; no cut-off is given here.

Assays:
[1] = test system: A549; assay: cells; details: Homo sapiens
Description: Antiproliferative activity against human A549 cells assessed as cell growth inhibition incubated for72 hrs by MTT assay

[2] = test system: Huh-7; assay: cells; details: Homo sapiens
Description: Antiproliferative activity against human Huh-7 cells assessed as cell growth inhibition incubated for72 hrs by MTT assay

[3] = test system: T-24; assay: cells; details: Homo sapiens
Description: Antiproliferative activity against human T-24 cells assessed as cell growth inhibition incubated for72 hrs by MTT assay

[4] = test system: A549/TR; assay: Antiproliferative activity against human A549/Taxol cells assessed as cell growth inhibition incubated for72 hrs by MTT assay; type: functional, cell-based
[5] = Resistance index, ratio of IC50 for human A549/Taxol cells to IC50 for human A549 cells; type: functional
[6] = Aqueous solubility of compound in pH 7.4 at 10 mg/ml by HPLC analysis; type: physicochemical; details: buffer, read-out: solubility
[7] = Lipophilicity, logP of compound in n-octanol-water at 5 mg/ml incubated for 8 hrs by HPLC analysis; type: physicochemical
[8] = test system: A549; assay: Antitumor activity against human A549 cells xenografted in Balb/c nude mouse assessed as tumor growth inhibition at 25 mg/kg, IG qd for 21 days relative to control; type: functional; details: A549, po, 504 h, time 21 day, read-out: TGI
[9] = molecular target: Tubulin (Homo sapiens) (UniProt P68371+Q9H4B7+P0DPH7+P68366+Q13509+Q71U36+P04350+Q3ZCM7+P07437+P68363+Q9BQE3+Q6PEY2+Q13885+Q9BVA1+Q9BUF5); assay: Binding affinity to tubulin polymerization at colchicine-binding site in human A549 cells assessed as N,N'-ethylene- bis(iodoacetamide)/beta-tubulin adduct formation at 5 to 25 uM incubated for 2 hrs by chemiluminescence based assay; type: cell-based; details: dose 5-25 µM

| IC50 [1] [µM] | IC50 [2] [µM] | IC50 [3] [µM] | Compound | also measured |
| --- | --- | --- | --- | --- |
| 0.2 | 0.15 | 0.32 | COc1cc(-n2ncc3ccc(-c4ccc(Cl)cc4)cc32)cc(OC)c1OC | – |
| 0.12 | 0.14 | 0.17 | COc1cc(-n2ncc3ccc(-c4ccc5[nH]ccc5c4)cc32)cc(OC)c1OC | – |
| 0.052 | 0.042 | 0.08 | COc1cc(-n2ncc3ccc(-c4ccccc4)cc32)cc(OC)c1OC | – |
| > 25 | > 25 | > 25 | COc1ccc(-n2ncc3ccc(-c4cc(OC)c(OC)c(OC)c4)cc32)cn1 | – |
| 0.06 | 0.054 | 0.13 | COc1ccc2c(Nc3cc(OC)c(OC)c(OC)c3)n[nH]c2c1 | IC50 [4]: 0.091 µM; Ratio IC50 [5]: 1.5; solubility [6]: 3.48 µg/mL (≈ 10.6 µM); logP at 8 h [7]: 3.7; inhibition in vivo at 25 mg/kg [8]: 47.8% |
| – | – | – | CC[C@]1(O)C[C@H]2CN(CCc3c([nH]c4ccccc34)[C@@](C(=O)OC)(c3cc4c(cc3OC)N(C=O)[C@H]3[C@@](O)(C(=O)OC)[C@H](OC(C)=O)[C@]5(CC)C=CCN6CC[C@]43[C@@H]65)C2)C1 | Activity [9]: inactive |
| 1.45 | 3.73 | 2.28 | CCOc1ccc(-c2ccc3cnn(-c4cc(OC)c(OC)c(OC)c4)c3c2)cc1 | – |
| 15.2 | 9.22 | 16.4 | COc1cc(-n2ncc3ccc(-c4ccncc4)cc32)cc(OC)c1OC | – |
| – | – | – | CC(=O)O[C@H]1C(=O)[C@@]2(C)[C@H]([C@H](OC(=O)c3ccccc3)[C@]3(O)C[C@H](OC(=O)[C@H](O)[C@@H](NC(=O)c4ccccc4)c4ccccc4)C(C)=C1C3(C)C)[C@]1(OC(C)=O)CO[C@@H]1C[C@@H]2O [PACLITAXEL] | IC50 [4]: 5.65 µM; Ratio IC50 [5]: 403.8 |
| 0.092 | 0.1 | 0.11 | COc1ccc(-c2ccc3cnn(-c4cc(OC)c(OC)c(OC)c4)c3c2)cc1 | – |
| 19.5 | > 25 | > 25 | COc1cc(-c2ccc3c(C)nn(-c4ccc(OC(F)(F)F)cc4)c3c2)cc(OC)c1OC | – |
| 0.045 | 0.051 | 0.092 | COc1cc(-n2ncc3ccc(-c4ccc(C)cc4)cc32)cc(OC)c1OC | – |
| 0.15 | 0.33 | 0.19 | COc1ccc(-c2ccc3cnn(-c4cc(OC)c(OC)c(OC)c4)c3c2)cn1 | – |

| Compound | IC50 [1] [µM] | IC50 [2] [µM] | IC50 [3] [µM] | also measured |
| --- | --- | --- | --- | --- |
| COc1cc2c(c(OC)c1OC)-c1ccc(OC)c(=O)cc1[C@@H](NC(C)=O)CC2 [COLCHICINE] | – | 0.024 | 0.046 | – |
